In PMC8409943, “Study on mechanism of low bioavailability of black tea theaflavins by using Caco-2 cell monolayer” (Drug Delivery, 2021):
Read-outs that look alike come from different tables or passages of the source.

Tests used:
[1] = tested on: Caco-2 cell monolayers; test: Transepithelial transport of theaflavins across Caco-2 cell monolayers, with or without efflux transporter inhibitors; assay type: in vitro ADME, Human
Procedure: (§1) For transport studies, Caco-2 cells were seeded at a density of 3 × 10^5 cells per well in Transwell® inserts (polycarbonate membrane, 24 mm i.d., 0.4 μm pore size, Corning Costar Corp., NY, USA) in 6-well plates (Zhang et al., [2004]). […] The inserts were washed twice with HBSS buffer and equilibrated at 37 °C for 30 min. Standard stock solutions of each theaflavin were diluted to 200 μM with HBSS. For absorptive transport, theaflavins in 1.5 mL HBSS was added into the AP side and 2.6 mL HBSS was added into the BL side of all inserts. For secretory transport, 1.5 mL HBSS and 2.6 mL theaflavins in HBSS were added into AP side and BL side, respectively. Samples were collected from the receiving chamber after 0.5, 1, 2, 3, or 4 h incubation and then were lyophilized at −110 °C in a CoolSafe freeze dryer (LaboGene ApS, Bjarkesvej, Denmark) for HPLC analysis. The recovery rate of theaflavins in the transport was calculated from the above Equation (2).
(§2) Prior to transport inhibition experiment, cells were preincubated for 30 min with 100 μM Vep, 100 μM CsA, 100 μM MK-571, or 10 μM FTC in both sides (Vaidyanathan & Walle, [2001]; Wang et al., [2008]). Then, the absorptive and secretory experiments were performed in the presence of inhibitors as described above. Samples were collected from the receiving chamber after 2 h incubation and then were lyophilized at −110 °C for HPLC analysis.
(§3) The apparent permeability coefficient (Papp, cm/s) was calculated as follows: (3) Papp= dQ/dt×V/(A×C0) where dQ/dt is the variation in concentration on the receiving side over time (μM/s); V, the volume of the solution collected from the receiving chamber (cm^3); A, the area of the membrane (4.67 cm^2); C0, the initial concentration of theaflavins in the donor chamber (μM).
(§4) The efflux ratio was calculated as follows: (4) Efflux ratio= Papp(BL−AP)/Papp(AP−BL) where Papp, apparent permeability coefficient; AP-BL, apical to basolateral transport; BL-AP, basolateral to apical transport.

[2] = as above; assay type: in vitro ADME, Human; settings: human; for recovery at 2 h, 200 μM: Caco-2, Caco-2 monolayers, after 2 h incubation; for efflux ratio at 2 h, 200 μM / Papp A→B at 2 h, 200 μM / Papp B→A at 2 h, 200 μM: 2 h incubation
Procedure: as §1, §2, §3, §4

[3] = tested on: Caco-2 monolayers; test: HPLC-MS/MS identification of metabolites in the absorptive transport of Caco-2 monolayers; assay type: in vitro ADME, Human; settings: 200 µM, 2 h; for conjugated metabolites (glucuronidated, sulfated and methylated): AP side or BL side of Caco-2 monolayers; for metabolites identified: absorptive transport, AP side and BL side
Procedure: TF3G, TF3’G and TFDG were dissolved in DMSO (≤0.5%), and then, diluted with HBSS. Caco-2 cells were incubated with 200 µM TF3G, TF3’G and TFDG at 37 °C for 2 h. Samples collected from both AP side and BL side were measured by HPLC with MS detection, and the metabolites were determined in terms of the standard TF, TF3G, TF3’G, TFDG, and gallic acid (Table S2).

[4] = tested on: BCRP; test: Western blot, protein level of BCRP; assay type: cell-based, Human; settings: Caco-2 cells, 200 μM, 2 h, normalized to β-actin, vs control
Procedure: (§5) Cell lysates were prepared with RIPA lysis buffer. […] Cell protein (50 μg) was loaded onto SDS polyacrylamide gel (5% stacking gel; 8% separating gel) and separated by electrophoresis for 1.5 h at 20 mA. Next, the separated proteins were transferred onto the PVDF membrane in ice bath for 1.5 h at 120 mA, followed by blocking the membrane with 5% nonfat milk in Tris-buffered saline containing 0.1% Tween-20 (TBST) for 1 h at room temperature. After blocking, the blots were incubated overnight at 4 °C with the primary antibody of P-gp, MRP1, MRP2, MRP3, BCRP (1:200) or β-actin (1:40,000), followed by washing with TBST and incubation for 1 h at room temperature with HRP-conjugated goat anti-rabbit (1:3,000). Immunoreactive proteins were visualized by the ECL detection system, band intensity was quantified by Image Lab (Bio-Rad, CA, USA), and the protein contents were normalized to β-actin.

[5] = Stability (recovery rate) of theaflavins in HBSS and DMEM in the absence of cells; settings: 2 h
Procedure: Standard stock solutions of each theaflavin were diluted with HBSS and DMEM respectively, obtaining final test solutions of 200 μM. The recovery rate of theaflavins in HBSS and in DMEM, in the absence of cells, was analyzed by HPLC after incubation at 37 °C for 0.5, 1, 2, 3, 4, 8, 12, and 24 hours, respectively. The recovery rate was used to measure the stability and calculated as follows: (2) Recovery rate=Ct/C0× 100% where Ct is the final concentration at different incubation time (μM); C0, the initial concentration (μM).
Theaflavins were characterized by high performance liquid chromatography (HPLC, Agilent 1100VL, Agilent Technologies Inc., CA, USA). Briefly, samples were extracted with 70% methanol, centrifuged at 685 × g for 10 min, and filtered through a 0.45 μm membrane (Nylon 66). The separation was performed by an ODS reversed-phase column (4.6 mm i.d.×250 mm, SB-C18, Agilent Technologies Inc., CA, USA) at a flow rate of 0.7 mL/min. Chromatographic conditions were slightly modified according to China National Standard (GB/T 30483-2013, GAQSIQ, P. R. China, 2013). Samples were eluted with a gradient of solvent A (100 mL water with 9 mL acetonitrile and 2 mL acetic acid) and B (100 mL acetonitrile with 17.8 mL water and 2 mL acetic acid) as follows: 0–5 min, 95% A; 5–10 min, 90% A; 10–20 min, 70% A; 20–25 min, 65% A; 25–30 min, 70% A; 30–35 min, 100% A. Theaflavins were detected using an ultraviolet detector at a wavelength of 278 nm.

[6] = tested on: MRP1; test: Western blot, protein level of MRP1; assay type: cell-based, Human; settings: Caco-2 cells, 200 μM, 2 h, normalized to β-actin, vs control
Procedure: as §5

[7] = tested on: Caco-2 cells; test: Cytotoxicity study by CCK-8 method; assay type: cell-based, Human; settings: 24 h
Procedure: Standard stock solutions (1000 μM) of each theaflavin were prepared in 0.1% dimethyl sulfoxide (DMSO) in deionized water, and diluted with fresh DMEM to 100, 200, 300, 400, and 500 µmol/L respectively. Each inhibitor was prepared as instructions. The cytotoxicity of theaflavins and four inhibitors of multidrug resistant associated proteins to Caco-2 cells was examined by CCK-8 method (Song et al., [2014]). Briefly, Caco-2 cells were inoculated onto 96-well microtiter plates at a density of 1 × 10^4 cells per well. After incubation at 37 °C for 24 h, cells were incubated for another 24 h with different concentrations of theaflavins, followed by adding 10 μL CCK-8 solution and 1 h incubation at 37 °C. The absorbance (OD) value was determined at 450 nm using a microplate reader (ELX-800, Bio-Tek Instruments Inc., Winooski, USA). Four inhibitors were used in this study: Vep, inhibitor of P-gp; CsA, inhibitor and substrate of P-gp; MK-571, inhibitor of MRP1, MRP2 and MRP3; FTC, inhibitor of BCRP (Silbermann et al., [1989]; König et al., [1999]; Renes et al., [1999]; Ali et al., [2017]). The cytotoxicity of Vep, CsA, MK-571 or FTC was also determined by CCK-8 assay. […] To determine the effects of inhibitors on the cytotoxicity of theaflavins, cells were incubated with both different theaflavin monomers (100, 200, 300, 400, and 500 μM) and different inhibitors. IC50, the half inhibitory concentration, was calculated from the cell viability. The cell viability was calculated by the following equation: (1) Cell viability (%)=(ODsample− ODblank)/(ODcontrol− ODblank)×100% where ODsample is the absorbance value of cell + sample + complete medium; ODblank, the absorbance value of complete medium; ODcontrol, the absorbance value of cell + complete medium.

[8] = apical to basolateral, read-out: recovery of theaflavins in absorptive transport
[9] = basolateral to apical, read-out: recovery of theaflavins in secretory transport
[10] = Caco-2, Papp(BL−AP)/Papp(AP−BL), Ctrl (no inhibitor)
[11] = Caco-2, absorptive transport, 200 μM theaflavin in HBSS, Ctrl (no inhibitor)
[12] = Caco-2, secretory transport, 200 μM theaflavin in HBSS, Ctrl (no inhibitor)
[13] = Caco-2, with 10 μM FTC (BCRP inhibitor), + 10 μM FTC (BCRP inhibitor)
[14] = Caco-2, with 10 μM FTC (BCRP inhibitor), absorptive transport, + 10 μM FTC (BCRP inhibitor)
[15] = Caco-2, with 10 μM FTC (BCRP inhibitor), secretory transport, + 10 μM FTC (BCRP inhibitor)
[16] = Caco-2, with 100 μM CsA (P-gp inhibitor and substrate), + 100 μM CsA (P-gp inhibitor and substrate)
[17] = Caco-2, with 100 μM CsA (P-gp inhibitor and substrate), absorptive transport, + 100 μM CsA (P-gp inhibitor and substrate)
[18] = Caco-2, with 100 μM CsA (P-gp inhibitor and substrate), secretory transport, + 100 μM CsA (P-gp inhibitor and substrate)
[19] = Caco-2, with 100 μM Vep (P-gp inhibitor), + 100 μM Vep (P-gp inhibitor)
[20] = Caco-2, with 100 μM Vep (P-gp inhibitor), absorptive transport, + 100 μM Vep (P-gp inhibitor)
[21] = Caco-2, with 100 μM Vep (P-gp inhibitor), secretory transport, + 100 μM Vep (P-gp inhibitor)
[22] = Homo sapiens, Ctrl (no inhibitor)

In the case of `O=C(O[C@@H]1Cc2c(O)cc(O)cc2O[C@@H]1c1cc(O)c(=O)c2c(O)c(O)cc([C@H]3Oc4cc(O)cc(O)c4C[C@H]3O)c2c1)c1cc(O)c(O)c(O)c1` [TF3G, theaflavin-3-gallate], the “fold increase in the influx” value ([1]; absorptive transport, with verapamil vs control, 2 h) is reported as 1.90 fold, the “transport amount, absorptive transport (peak)” value ([1]; apical to basolateral, 200 μM, at 3 h) is reported as 1.30 ± 0.08 nmol and the “transport amount, secretory transport (peak)” value ([1]; basolateral to apical, 200 μM, at 3 h) is reported as 3.59 ± 0.36 nmol. It also gave a recovery at 2 h, 200 μM [2, 8] of 44.2%, a recovery at 2 h, 200 μM [2, 9] of 47.6% and an efflux ratio at 2 h, 200 μM [2, 10] of 1.58 ± 0.3. It also gave a Papp A→B at 2 h, 200 μM [2, 11] of 0.107 ± 0.004 ×10⁻⁶ cm/s, a Papp B→A at 2 h, 200 μM [2, 12] of 0.168 ± 0.03 ×10⁻⁶ cm/s and an efflux ratio at 2 h, 200 μM [2, 13] of 1.41 ± 0.27. The Papp A→B at 2 h, 200 μM [2, 14] was 0.109 ± 0.004 ×10⁻⁶ cm/s, the Papp B→A at 2 h, 200 μM [2, 15] was 0.153 ± 0.027 ×10⁻⁶ cm/s and the efflux ratio at 2 h, 200 μM [2, 16] was 1.13 ± 0.22. For the same molecule, the Papp A→B at 2 h, 200 μM [2, 17] was 0.13 ± 0.005 ×10⁻⁶ cm/s, the Papp B→A at 2 h, 200 μM [2, 18] was 0.146 ± 0.026 ×10⁻⁶ cm/s and the efflux ratio at 2 h, 200 μM [2, 19] was 0.86 ± 0.16. For the same molecule, the Papp A→B at 2 h, 200 μM [2, 20] was 0.203 ± 0.008 ×10⁻⁶ cm/s, the Papp B→A at 2 h, 200 μM [2, 21] was 0.173 ± 0.031 ×10⁻⁶ cm/s and the “conjugated metabolites (glucuronidated, sulfated and methylated)” value [3] was “not detected”. For the same molecule, the metabolites identified [3] was “GA and TF”, the “increase of protein level of BCRP” value [4] was 115.78% and the “degraded due to the structural instability” value [5] was 24.6%. The “increase of protein level of MRP1” value [6] was 58.36%, the IC50 ([7]; + CsA) was 446 ± 30.1 µM and the IC50 ([7]; + FTC) was 508 ± 15.9 µM. For the same molecule, the IC50 ([7]; + MK-571) was 585 ± 78.7 µM, the IC50 ([7]; + VEP) was 454 ± 13.2 µM and the IC50 [7, 22] was 641 ± 7.8 µM.

For `O=C(O[C@@H]1Cc2c(O)cc(O)cc2O[C@@H]1c1cc(O)c(=O)c2c(O)c(O)cc([C@H]3Oc4cc(O)cc(O)c4C[C@H]3OC(=O)c3cc(O)c(O)c(O)c3)c2c1)c1cc(O)c(O)c(O)c1` [TFDG, theaflavin-3, 3’-digallate], the “transport amount, absorption peak” value ([1]; apical to basolateral, 200 μM, at 2 h) was 2.44 ± 0.23 nmol, the “transport amount, secretion peak” value ([1]; basolateral to apical, 200 μM, at 2 h) was 3.83 ± 0.33 nmol and the recovery at 2 h, 200 μM [2, 8] was 32.7%. It also gave a recovery at 2 h, 200 μM [2, 9] of 24.7%, an efflux ratio at 2 h, 200 μM [2, 10] of 1.57 ± 0.08 and a Papp A→B at 2 h, 200 μM [2, 11] of 0.364 ± 0.034 ×10⁻⁶ cm/s. The Papp B→A at 2 h, 200 μM [2, 12] was 0.569 ± 0.049 ×10⁻⁶ cm/s, the efflux ratio at 2 h, 200 μM [2, 13] was 1.47 ± 0.08 and the Papp A→B at 2 h, 200 μM [2, 14] was 0.375 ± 0.035 ×10⁻⁶ cm/s. The Papp B→A at 2 h, 200 μM [2, 15] was 0.552 ± 0.048 ×10⁻⁶ cm/s, the efflux ratio at 2 h, 200 μM [2, 16] was 1.58 ± 0.09 and the Papp A→B at 2 h, 200 μM [2, 17] was 0.4 ± 0.037 ×10⁻⁶ cm/s. It also gave a Papp B→A at 2 h, 200 μM [2, 18] of 0.632 ± 0.055 ×10⁻⁶ cm/s, an efflux ratio at 2 h, 200 μM ([2]; Caco-2, with 100 μM MK-571 (MRP1, MRP2, MRP3 inhibitor), + 100 μM MK-571 (MRP1, MRP2, MRP3 inhibitor)) of 1.35 ± 0.07 and a Papp A→B at 2 h, 200 μM ([2]; Caco-2, with 100 μM MK-571 (MRP1, MRP2, MRP3 inhibitor), absorptive transport, + 100 μM MK-571 (MRP1, MRP2, MRP3 inhibitor)) of 0.389 ± 0.036 ×10⁻⁶ cm/s. The Papp B→A at 2 h, 200 μM ([2]; Caco-2, with 100 μM MK-571 (MRP1, MRP2, MRP3 inhibitor), secretory transport, + 100 μM MK-571 (MRP1, MRP2, MRP3 inhibitor)) was 0.524 ± 0.046 ×10⁻⁶ cm/s, the efflux ratio at 2 h, 200 μM [2, 19] was 1.53 ± 0.08 and the Papp A→B at 2 h, 200 μM [2, 20] was 0.357 ± 0.033 ×10⁻⁶ cm/s. For the same molecule, the Papp B→A at 2 h, 200 μM [2, 21] was 0.546 ± 0.047 ×10⁻⁶ cm/s, the “conjugated metabolites (glucuronidated, sulfated and methylated)” value [3] was “not detected” and the metabolites identified [3] was “GA, TF, TF3G, and TF3’G”. For the same molecule, the “increase of protein level of BCRP” value [4] was “increased”, the “increase of protein level of MRP1” value [6] was “increased” and the IC50 ([7]; + CsA) was 702 ± 69.4 µM. The IC50 ([7]; + FTC) was 580 ± 83.9 µM, the IC50 ([7]; + MK-571) was 373 ± 38.8 µM and the IC50 ([7]; + VEP) was 509 ± 40.6 µM. For the same molecule, the IC50 [7, 22] was 580 ± 34.7 µM.
